Assay results published in patent US20260083865A1, “PROSTATE SPECIFIC MEMBRANE ANTIGEN (PSMA) LIGANDS AND USE THEREOF” (priority 2022, published 2026).
Like-named read-outs stand apart in the source and are kept apart here. Numbered stars: 1 amine (or outer) side, 2 acyl side, 3 side chain; on linkers, the order of the positions; unused ones are H or OH. Bridge positions count the residues as written; N and C are the ends. Square brackets hold non-standard residues; d marks the D form. Peptide text beside a SMILES is read from it. * marks the point of attachment. X3 = O=C(O)CN1CCN(CC(=O)O)CCN(CC(=O)NCCCOCCOCCOCCCN*)CCN(CC(=O)O)CC1; DOTA = O=C(O)CN1CCN(CC(=O)O)CCN(CC(=O)*)CCN(CC(=O)O)CC1; Trp(5-Br) = N[C@@H](Cc1c[nH]c2ccc(Br)cc12)C(=O)O; Phe(4-Cl) = N[C@@H](Cc1ccc(Cl)cc1)C(=O)O; Thz(5,5-Me2) = CC1(C)SCN[C@@H]1C(=O)O; Arg(Me) = CNC(=N)NCCC[C@H](N)C(=O)O; Lys(Me2) = CN(C)CCCC[C@H](N)C(=O)O; Hyp = O=C(O)[C@@H]1C[C@@H](O)CN1; 2Pal = N[C@@H](Cc1ccccn1)C(=O)O; X1 = O=C(CC1CCN([*:1])CC1)[*:2]; Cit = NC(=O)NCCC[C@H](N)C(=O)O; Lys(Me) = CNCCCC[C@H](N)C(=O)O; Suc = O=C(CCC(=O)[*:2])[*:1]; Tle = CC(C)(C)[C@H](N)C(=O)O; Nle = CCCC[C@H](N)C(=O)O; NHCH2CH2NHMe = CNCCN*; Aib = CC(C)(N)C(=O)O; βAla = NCCC(=O)O

Legend:
[1] = target: T1, Fc-fusion protein of human PSMA (hPSMA-Fc) (Homo sapiens, UniProt Q04609); test: Surface plasmon resonance assay (Biacore T200, single cycle kinetic); format: binding; details: read-out: pKD CAT (converted)
T1 construct: purchased Acro Biosystems PSA-H5264
T1 sequence (Q04609 44-750 limits assumed): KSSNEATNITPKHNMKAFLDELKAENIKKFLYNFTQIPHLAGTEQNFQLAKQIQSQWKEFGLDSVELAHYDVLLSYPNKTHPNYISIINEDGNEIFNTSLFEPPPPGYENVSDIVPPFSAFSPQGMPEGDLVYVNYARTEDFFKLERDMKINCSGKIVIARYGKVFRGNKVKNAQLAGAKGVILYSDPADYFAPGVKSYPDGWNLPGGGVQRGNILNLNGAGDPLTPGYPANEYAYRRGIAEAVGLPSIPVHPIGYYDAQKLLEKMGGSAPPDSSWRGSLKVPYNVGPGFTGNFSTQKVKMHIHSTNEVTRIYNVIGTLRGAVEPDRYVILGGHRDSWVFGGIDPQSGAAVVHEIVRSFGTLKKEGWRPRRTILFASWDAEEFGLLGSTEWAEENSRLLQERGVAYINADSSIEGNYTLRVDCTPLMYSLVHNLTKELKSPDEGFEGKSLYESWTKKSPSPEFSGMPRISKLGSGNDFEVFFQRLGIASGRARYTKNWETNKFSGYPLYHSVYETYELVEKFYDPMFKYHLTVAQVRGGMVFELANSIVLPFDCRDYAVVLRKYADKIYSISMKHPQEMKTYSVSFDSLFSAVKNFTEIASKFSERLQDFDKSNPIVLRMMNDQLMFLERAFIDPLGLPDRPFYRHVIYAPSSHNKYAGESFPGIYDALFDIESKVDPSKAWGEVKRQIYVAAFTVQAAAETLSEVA
How it was run: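 KD, expressed as pKD, came from 1:1 Langmuir fits of reference- and buffer-blank-subtracted SPR data. The runs were single-cycle kinetics at 25° C in HBST/0.1% DMSO over human PSMA-Fc, captured to ~1000 RU on a peptide-coated CM5 surface and regenerated with 10 mM glycine pH 1.5.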

[2] = target: T2, PSMA-expressing C4-2 cells (Homo sapiens, UniProt Q04609); test: FACS binding assay (competition with 50 nM PSM-0183); details: read-out: pIC50 [C4-2] CAT (converted)
T2 construct: PSMA-expressing C4-2 cells (ATCC, Cat. No. CRL-3314) were cultured in RPMI-1640; host or cells: C4-2 cells
T2 sequence (Q04609 whole entry): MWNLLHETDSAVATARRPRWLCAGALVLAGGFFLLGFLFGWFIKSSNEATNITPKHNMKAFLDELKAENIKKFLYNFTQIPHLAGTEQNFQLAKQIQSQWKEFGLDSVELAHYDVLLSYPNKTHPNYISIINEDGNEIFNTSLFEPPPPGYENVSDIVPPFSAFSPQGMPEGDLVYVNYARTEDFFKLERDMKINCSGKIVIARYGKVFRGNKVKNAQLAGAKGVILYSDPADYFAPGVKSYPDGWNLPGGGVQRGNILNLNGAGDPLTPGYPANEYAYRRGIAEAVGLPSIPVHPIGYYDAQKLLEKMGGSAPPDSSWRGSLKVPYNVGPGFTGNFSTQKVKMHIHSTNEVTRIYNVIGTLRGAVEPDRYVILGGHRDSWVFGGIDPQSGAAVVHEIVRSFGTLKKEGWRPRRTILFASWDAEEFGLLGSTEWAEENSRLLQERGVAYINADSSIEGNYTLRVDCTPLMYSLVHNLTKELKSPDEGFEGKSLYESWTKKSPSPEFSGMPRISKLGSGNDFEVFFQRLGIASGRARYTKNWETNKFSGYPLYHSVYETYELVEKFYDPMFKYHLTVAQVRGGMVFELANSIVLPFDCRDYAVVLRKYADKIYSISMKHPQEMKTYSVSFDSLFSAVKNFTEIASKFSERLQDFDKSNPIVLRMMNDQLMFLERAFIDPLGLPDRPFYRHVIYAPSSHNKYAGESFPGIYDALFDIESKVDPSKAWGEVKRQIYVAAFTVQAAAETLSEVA
How it was run: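 Competition format: fluorescent tracer PSM-0183 (50 nM) displaced from PSMA on C4-2 cells by a test compound titration over 1 h at 4 °C. Bound tracer was quantified as flow-cytometric AF488 median fluorescence after washing. Four-parameter logistic fits of MFI data gave IC50 and pIC50.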

[3] = pKD category for PSMA SPR activity assay, hPSMA-Fc, 25° C.
[4] = pIC50 category of FACS binding, C4-2 cells
[5] = SPR, hPSMA-Fc, single cycle kinetic, 25° C., category
[6] = FACS binding, C4-2 cells, competition with 50 nM PSM-0183, category

SMILES	Kd [1, 3]	IC50 [2, 4]	Kd [1, 5]	IC50 [2, 6]	further results
C[C@@H](O)[C@H](NC(=O)[C@@H](NC(=O)[C@@H]1CSSC[C@H](NC(=O)[C@H](Cc2ccccn2)NC(=O)C(C)(C)NC(=O)[C@@H](NC(=O)CC2CCN(C(=O)CN3CCN(CC(=O)O)CCN(CC(=O)O)CCN(CC(=O)O)CC3)CC2)[C@@H](C)O)C(=O)N[C@@H](CCCCN)C(=O)N[C@@H](CCCNC(N)=O)C(=O)NC(C)(C)C(=O)N[C@@H](CC(N)=O)C(=O)N1)C(C)(C)C)C(N)=O [PSM-0512, DOTA-Cmp-Thr-Aib-Opa-[Cys-Lys-Cit-Aib-Asn-Cys]-Tle-Thr-NH2] ({DOTA}-[X1]T[Aib][2Pal]CK[Cit][Aib]NC[Tle]T-NH2; disulfide 5-10)	12.6 to 126 nM	200 to 1260 nM	–	–	–
CNCCCC[C@@H]1NC(=O)[C@@H](NC(=O)[C@H](Cc2ccc(Cl)cc2)NC(=O)C(C)(C)NC(=O)[C@@H](NC(=O)CC2CCN(C(=O)CN3CCN(CC(=O)O)CCN(CC(=O)O)CCN(CC(=O)O)CC3)CC2)[C@@H](C)O)CSSC[C@@H](C(=O)N[C@H](C(=O)NCCC(N)=O)C(C)(C)C)NC(=O)[C@H](CC(N)=O)NC(=O)C(C)(C)NC(=O)[C@H](CCCNC(=N)NC)NC1=O [PSM-606] ({DOTA}-[X1]T[Aib][Phe(4-Cl)]C[Lys(Me)][Arg(Me)][Aib]NC[Tle][βAla]-NH2; disulfide 5-10)	–	–	–	–	Kd ([1]; PSMA SPR assay, category): < 12.6 nM; IC50 ([2]; FACS binding, C4-2 cells, category): < 200 nM
CNCCNC(=O)[C@@H](NC(=O)[C@@H]1CSSC[C@H](NC(=O)[C@H](Cc2ccc(Cl)cc2)NC(=O)C(C)(C)NC(=O)[C@@H](NC(=O)CC2CCN(C(=O)CN3CCN(CC(=O)O)CCN(CC(=O)O)CCN(CC(=O)O)CC3)CC2)[C@@H](C)O)C(=O)N[C@@H](CCCCN)C(=O)N[C@@H](CCCNC(=N)N)C(=O)NC(C)(C)C(=O)N[C@@H](CC(N)=O)C(=O)N1)C(C)(C)C [PSM-0456, DOTA-Cmp-Thr-Aib-Pcf-[Cys-Lys-Arg-Aib-Asn-Cys]-Tle-en(Me)] ({DOTA}-[X1]T[Aib][Phe(4-Cl)]CKR[Aib]NC[Tle]-NHCH2CH2NHMe; disulfide 5-10)	12.6 to 126 nM	< 200 nM	–	–	–
CCCC[C@H](NC(=O)[C@@H]1CSSC[C@H](NC(=O)[C@H](Cc2ccccc2)NC(=O)[C@H](C)NC(=O)[C@@H](NC(=O)CCC(=O)NCCCOCCOCCOCCCNC(=O)CN2CCN(CC(=O)O)CCN(CC(=O)O)CCN(CC(=O)O)CC2)[C@@H](C)O)C(=O)N[C@@H](CCCCN)C(=O)N[C@@H](CCCNC(=N)N)C(=O)N[C@@H](C)C(=O)N[C@@H](CC(N)=O)C(=O)N1)C(=O)N[C@H](C(=O)N[C@@H](CC(=O)O)C(N)=O)[C@@H](C)O [PSM-0504, DOTA-Ttds-Thr-Ala-Phe-[Cys-Lys-Arg-Ala-Asn-Cys]-Nle-Thr-Asp-NH2] ({X3-Suc}-TAFCKRANC[Nle]TD-NH2; disulfide 4-9)	12.6 to 126 nM	200 to 1260 nM	–	–	–
CC(=O)N[C@H](C(=O)NC(C)(C)C(=O)N[C@@H](Cc1ccccc1)C(=O)N[C@H]1CSSC[C@@H](C(=O)N[C@H](C(=O)N[C@H](C(=O)N[C@@H](CC(=O)O)C(N)=O)[C@@H](C)O)C(C)(C)C)NC(=O)[C@H](CC(N)=O)NC(=O)[C@H]2N(CSC2(C)C)C(=O)[C@H](CCCNC(=N)N)NC(=O)[C@H](CCCCN)NC1=O)[C@@H](C)O [PSM-0532, Ac-Thr-Aib-Phe-[Cys-Lys-Arg-Dtc-Asn-Cys]-Tle-Thr-Asp-NH2] (Ac-T[Aib]FCKR[Thz(5,5-Me2)]NC[Tle]TD-NH2; disulfide 4-9)	< 12.6 nM	< 200 nM	–	–	–
CCCC[C@H](NC(=O)[C@@H]1CSSC[C@H](NC(=O)[C@H](Cc2ccccc2)NC(=O)[C@H](C)NC(=O)[C@@H](NC(C)=O)[C@@H](C)O)C(=O)N[C@@H](CCCCN)C(=O)N[C@@H](CCCNC(=N)N)C(=O)N[C@@H](CCC(=O)O)C(=O)N[C@@H](CC(N)=O)C(=O)N1)C(=O)N[C@@H](C(=O)N[C@H](CC(=O)O)C(N)=O)[C@H](C)O [PSM-0197, Ac-Thr-Ala-Phe-[Cys-Lys-Arg-Glu-Asn-Cys]-Nle-Thr-Asp-NH2] (Ac-TAFCKRENC[Nle][dT][dD]-NH2; disulfide 4-9)	–	–	12.6 to 126 nM	< 200 nM	–
CC(C)C[C@H](NC(=O)[C@@H]1CSSC[C@H](NC(=O)[C@H](Cc2ccccc2)NC(=O)[C@H](C)NC(=O)[C@@H](NC(=O)CCC(=O)NCCCOCCOCCOCCCNC(=O)CN2CCN(CC(=O)O)CCN(CC(=O)O)CCN(CC(=O)O)CC2)[C@@H](C)O)C(=O)N[C@@H](CCCCN)C(=O)N[C@@H](CCCNC(=N)N)C(=O)N[C@@H](C)C(=O)N[C@@H](CC(N)=O)C(=O)N1)C(N)=O [PSM-0480, DOTA-Ttds-Thr-Ala-Phe-[Cys-Lys-Arg-Ala-Asn-Cys]-Lou-NH2] ({X3-Suc}-TAFCKRANCL-NH2; disulfide 4-9)	126 to 501 nM	1260 to 3160 nM	–	–	–
CNC(=N)NCCC[C@@H]1NC(=O)[C@H](CCCCN(C)C)NC(=O)[C@@H](NC(=O)[C@H](Cc2ccc(Cl)cc2)NC(=O)C(C)(C)NC(=O)[C@@H](NC(=O)CC2CCN(C(=O)CN3CCN(CC(=O)O)CCN(CC(=O)O)CCN(CC(=O)O)CC3)CC2)[C@@H](C)O)CSSC[C@@H](C(=O)N[C@H](C(=O)N[C@H](C(N)=O)[C@@H](C)O)C(C)(C)C)NC(=O)[C@H](CC(N)=O)NC(=O)C(C)(C)NC1=O [PSM-0203, DOTA-Cmp-Thr-Aib-Pcf-[Cys-KMe2-Arg(Me)-Aib-Asn-Cys]-Tle-Thr-NH2] ({DOTA}-[X1]T[Aib][Phe(4-Cl)]C[Lys(Me2)][Arg(Me)][Aib]NC[Tle]T-NH2; disulfide 5-10)	–	–	< 12.6 nM	< 200 nM	–
CNCCCC[C@@H]1NC(=O)[C@@H](NC(=O)[C@H](Cc2c[nH]c3ccc(Br)cc23)NC(=O)C(C)(C)NC(=O)[C@@H](NC(=O)CC2CCN(C(=O)CN3CCN(CC(=O)O)CCN(CC(=O)O)CCN(CC(=O)O)CC3)CC2)[C@@H](C)O)CSSC[C@@H](C(=O)N[C@H](C(=O)N[C@H](C(N)=O)[C@@H](C)O)C(C)(C)C)NC(=O)[C@H](CC(N)=O)NC(=O)C(C)(C)NC(=O)[C@H](CCCNC(=N)NC)NC1=O [PSM-0206, DOTA-Cmp-Thr-Aib-5Brw-[Cys-Lys(Me)-Arg(Me)-Aib-Asn-Cys]-Tle-Thr-NH2] ({DOTA}-[X1]T[Aib][Trp(5-Br)]C[Lys(Me)][Arg(Me)][Aib]NC[Tle]T-NH2; disulfide 5-10)	–	–	> 501 nM	1260 to 3160 nM	–
CNCCCC[C@@H]1NC(=O)[C@@H](NC(=O)[C@H](Cc2ccc(Cl)cc2)NC(=O)C(C)(C)NC(=O)[C@@H](NC(=O)CC2CCN(C(=O)CN3CCN(CC(=O)O)CCN(CC(=O)O)CCN(CC(=O)O)CC3)CC2)[C@@H](C)O)CSSC[C@@H](C(=O)N[C@H](C(=O)N[C@H](C(N)=O)[C@@H](C)O)C(C)(C)C)NC(=O)[C@H](CC(N)=O)NC(=O)[C@@H](C)NC(=O)[C@H](CCCNC(=N)NC)NC1=O [PSM-0246, DOTA-Cmp-Thr-Aib-Pcf-[Cys-Lys(Me)-Arg(Me)-ala-Asn-Cys]-Tle-Thr-NH2] ({DOTA}-[X1]T[Aib][Phe(4-Cl)]C[Lys(Me)][Arg(Me)][dA]NC[Tle]T-NH2; disulfide 5-10)	–	–	< 12.6 nM	< 200 nM	–
CC(=O)N[C@H](C(=O)NC(C)(C)C(=O)N[C@@H](Cc1ccccc1)C(=O)N[C@H]1CSSC[C@@H](C(=O)N[C@H](C(=O)N[C@H](C(=O)N[C@@H](CC(=O)O)C(N)=O)[C@@H](C)O)C(C)(C)C)NC(=O)[C@H](CC(N)=O)NC(=O)[C@@H]2C[C@@H](O)CN2C(=O)[C@H](CCCNC(=N)N)NC(=O)[C@H](CCCCN)NC1=O)[C@@H](C)O [PSM-0181, Ac-Thr-Aib-Phe-[Cys-Lys-Arg-Hyp-Asn-Cys]-Tle-Thr-Asp-NH2] (Ac-T[Aib]FCKR[Hyp]NC[Tle]TD-NH2; disulfide 4-9)	–	–	< 12.6 nM	< 200 nM	–
CCCC[C@H](NC(=O)[C@@H]1CSSC[C@H](NC(=O)[C@H](Cc2ccccc2)NC(=O)[C@H](C)NC(=O)[C@@H](NC(C)=O)[C@@H](C)O)C(=O)N[C@@H](CCCCN)C(=O)N[C@@H](CCCNC(=N)N)C(=O)N[C@@H](C)C(=O)N[C@@H](C)C(=O)N1)C(=O)N[C@H](C(=O)N[C@@H](CC(=O)O)C(N)=O)[C@@H](C)O [PSM-0335, Ac-Thr-Ala-Phe-[Cys-Lys-Arg-Ala-Ala-Cys]-Nle-Thr-Asp-NH2] (Ac-TAFCKRAAC[Nle]TD-NH2; disulfide 4-9)	–	–	–	–	Kd ([1]; PSMA SPR assay, hPSMA-Fc, 25° C., pKD category): 12.6 to 126 nM; IC50 ([2]; FACS binding, PSMA-expressing C4-2 cells, pIC50 category): 1260 to 3160 nM
CC(=O)N[C@H](C(=O)NC(C)(C)C(=O)N[C@@H](Cc1ccccc1)C(=O)N[C@H]1CSSC[C@@H](C(=O)N[C@H](C(=O)N[C@H](C(N)=O)[C@@H](C)O)C(C)(C)C)NC(=O)[C@H](CC(N)=O)NC(=O)[C@H](CCCCNC(=O)CN2CCN(CC(=O)O)CCN(CC(=O)O)CCN(CC(=O)O)CC2)NC(=O)[C@H](CCC(N)=O)NC(=O)[C@H](CCCCN)NC1=O)[C@@H](C)O [PSM-0385, Ac-Thr-Aib-Pho-[Cys-Lys-Gln-Lys(DOTA)-Asn-Cys]-Tle-Thr-NH2] (Ac-T[Aib]FCKQK(DOTA)NC[Tle]T-NH2; disulfide 4-9)	126 to 501 nM	200 to 1260 nM	–	–	–
